The results in this text go back to patent US9938301B2, “Dihydropyrimido fused ring derivative as HBV inhibitor” (QILU PHARMACEUTICAL CO., LTD., priority 2014, dated 2018).

Structures are written as SMILES.

One assay relates to HBV DNA in HepG2.2.15 cells. Nature of the assay: HBV in vitro dot-blot hybridization test. In kind it is cell-based, Hepatitis B virus. Particulars: Hepatitis B virus, HepG2.2.15, dot-blot hybridization assay, read-out: Concentration for 50% inhibition of HBV (EC50)value. As to the method: • 1. Purpose of the test: • The content of HBV DNA in HepG2.2.15 cells was detected by dot-blot hybridization test to evaluate an inhibitory action of the compound on HBV with an EC50 value as an indicator. • 2. Experimental materials: • 2.1 Cell lines: HepG2.2.15 Cells • HepG2.2.15 cell culture media (DMEM/F12, Invitrogen-11330057; 10% serum Invitrogen-10099141; 100 units/mL Penicillin and 10 μg/mL Streptomycin, Invitrogen-15140122; 1% non-essential amino acid, Invitrogen-11140076; 2 mM L-GLUTAMINE, Invitrogen-25030081; 300 µg/ml Geneticin, Invitrogen-10131027 • 2.2 Reagents: • Trypsin (I Invitrogen-25300062) • DPBS (Hyclone-SH30028.01B) • DMSO (Sigma-D2650-100ML) • 96-well cell-culture plate (Corning-3599) • CO2 incubator (HERA-CELL-240) • 20×SSC (Bio-serve Co. Ltd) • Tris-HCl (Aldirch-154563-1KG) • NaOH (Sinopharm 10019718) • NaCl (Sinopharm 10019308) • Hybridization solution (Major BioTech Co. Ltd, IMMUNE GOLD-HYB-500) • DIG Wash and Block Buffer set (Roche-11585762001) • Anti-digoxigenin-AP, Fab fragments from sheep (Roche-11093274910) • 2.3 Materials and Instruments: • Positively-Charged Nylon Membrane (GE-RPN2250B) • Transfer Membrane Instrument (Bio-Rad, 170-6545) • Hybridization Oven (HL-2000 Hybrilinker) • 3. Testing steps and Methods: • 3.1 HepG2.2.15 cells (4×10^4 cells/well) were planted into a 96-well plate, and at 37° C., 5% CO2 cultured overnight. • 3.2 On Day 2, the compounds were diluted in totally 6 concentrations with a dilution gradient of five times. The compounds at different concentrations were added into the culture wells in duplicate. The final concentration of DMSO in the culture media was 1%. 1 μM GLS4 was used as 100% inhibition control; 1% DMSO as 0% inhibition control. • 3.3 On Day 5, replacing with the fresh culture media containing the compound was performed. • 3.4 On Day 8 and Day 9, the culture media in the culture wells was removed, and the cells were harvested for dot-blot hybridization. • The lysate was added into a culture well, and at 37° C. incubating for half an hour to disintegrate cells; the supernatant was obtained by centrifugation and transferred into a new microplate; a denaturation solution was added, after sufficient mixing the denatured sample was transferred and imprinted onto a Nylon membrane, the nucleic acid was fixed onto the membrane by UV cross-linking. • Pre-hybridization: the membrane was incubated at 60° C. in a hybridization solution for 1 hour. • Hybridization: heating the denatured digoxin-labelled HBV DNA probe and incubating at 60° C. overnight. • Membrane Washing: performing high strigency washing twice, low strigency washing for 3 times. • Blocking: incubating the membrane at room temperature in a blocking solution for 30-60 minutes. • Hybridization: diluting the Antibody Solution with the blocking solution, in which the membrane was placed and incubated at room temperature for 30-60 minutes. • Developing: washing the membrane in a Detection Buffer for 5 minutes, followed by adding a developing solution, pressing and exposing. • The photos was saved in tiff format, and a gray value of the dot was quantified with quantity one software. • 3.5 Data Analysis: • 3.5.1 The inhibition percentage was calculated: % Inh.=[1−(sample dot gray value−1 μM GLS4 dot gray value 1)/(DMSO control dot gray value−1 μM GLS4 dot gray value 1)]×100. • 3.5.2 Calculating EC50: the concentration of the compound for 50% inhibition of HBV (EC50) was calculated by using GraphPad Prism Software. • 4.
For the compound `CCOC(=O)C1=C2CCCN2C(c2nccs2)=NC1c1cccc(F)c1Cl` (racemic) [Example 70], the EC50 fell in the range of 100 to 500 nM. With `CCOC(=O)C1=C2CCCN2C(c2nccs2)=NC1c1ccc(F)cc1C` (racemic) [Example 71], the EC50 is 100 to 500 nM.

As for `CCOC(=O)C1=C2CCCN2C(c2nccs2)=NC1c1ccc(F)cc1F` (racemic) [Example 72], the EC50 was 500 to 1000 nM. For `CCOC(=O)C1=C2CCCN2C(c2nccs2)=NC1c1ccc(F)cc1` (racemic) [Example 73], the EC50 was in the range of 1000 to 5000 nM. The same measure, in the same setting: in the case of `CCOC(=O)C1=C2CCCN2C(c2nccs2)=NC1c1cc(Cl)sc1Cl` (racemic) [Example 74] it was 1000 to 5000 nM; in that of `CCOC(=O)C1=C2CCCN2C(c2nccs2)=NC1(C)c1ccc(F)cc1` (racemic) [Example 75], 1000 to 5000 nM; in that of `CCOC(=O)C1=C2CCCN2C(c2ncc(F)cc2F)=NC1c1ccc(F)cc1Cl` (racemic) [Example 76], 1000 to 5000 nM. Still for that read-out and setting: in the case of `CCOC(=O)C1=C2CCCN2C(c2ccsn2)=NC1c1ccc(F)cc1Cl` (racemic) [Example 77] it was 1000 to 5000 nM; in that of `CCOC(=O)C1=C2CCCN2C(c2nccn2C)=NC1c1ccc(F)cc1Cl` (racemic) [Example 78], 1000 to 5000 nM. The same measure, in the same setting: in the case of `CCOC(=O)C1=C2CCCN2C(c2nc(C)cs2)=NC1c1ccc(F)cc1Cl` (racemic) [Example 79] it was 1000 to 5000 nM. Take `COCOC(=O)C1=C2CCCN2C(c2nccs2)=NC1c1ccc(F)cc1Br` (racemic) [Example 80]: the EC50 lay within 1000 to 5000 nM. The same measure, in the same setting: in the case of `O=C(OCC(F)F)C1=C2CCCN2C(c2nccs2)=NC1c1ccc(F)cc1Br` (racemic) [Example 81] it was 1000 to 5000 nM; in that of `CCOC(=O)C1=C2CNCCN2C(c2nccs2)=NC1c1ccc(F)cc1Br` (racemic) [Example 83], 1000 to 5000 nM.

Still in this assay, the particulars now being: Hepatitis B virus, HepG2.2.15, summary list of target compounds, Examples 1-165 (same as Table 2), read-out: BIOACTIVITY (inhibitory actions on HBV DNA, EC50).
As to `CCOC(=O)C1=C2CCCN2C(c2nccs2)=NC1c1cccc(F)c1Cl` (racemic) [Example 70], the EC50 lay in the range of 100 to 500 nM.

Consider `CCOC(=O)C1=C2CCCN2C(c2nccs2)=NC1c1ccc(F)cc1C` (racemic) [Example 71], for which the EC50 was 100 to 500 nM. For `CCOC(=O)C1=C2CCCN2C(c2nccs2)=NC1c1ccc(F)cc1F` (racemic) [Example 72], the EC50 was in the range of 500 to 1000 nM. Consider `CCOC(=O)C1=C2CCCN2C(c2nccs2)=NC1c1ccc(F)cc1` (racemic) [Example 73], for which the EC50 is 1000 to 5000 nM. The same measure, in the same setting: in the case of `CCOC(=O)C1=C2CCCN2C(c2nccs2)=NC1c1cc(Cl)sc1Cl` (racemic) [Example 74] it was 1000 to 5000 nM; in that of `CCOC(=O)C1=C2CCCN2C(c2nccs2)=NC1(C)c1ccc(F)cc1` (racemic) [Example 75], 1000 to 5000 nM; in that of `CCOC(=O)C1=C2CCCN2C(c2ncc(F)cc2F)=NC1c1ccc(F)cc1Cl` (racemic) [Example 76], 1000 to 5000 nM. On the same count and under the same terms, next, `CCOC(=O)C1=C2CCCN2C(c2ccsn2)=NC1c1ccc(F)cc1Cl` (racemic) [Example 77]: 1000 to 5000 nM; `CCOC(=O)C1=C2CCCN2C(c2nccn2C)=NC1c1ccc(F)cc1Cl` (racemic) [Example 78]: 1000 to 5000 nM.

As to `CCOC(=O)C1=C2CCCN2C(c2nc(C)cs2)=NC1c1ccc(F)cc1Cl` (racemic) [Example 79], the EC50 fell in the range of 1000 to 5000 nM. The same measure, in the same setting: in the case of `COCOC(=O)C1=C2CCCN2C(c2nccs2)=NC1c1ccc(F)cc1Br` (racemic) [Example 80] it was 1000 to 5000 nM. Still for that read-out and setting: in the case of `O=C(OCC(F)F)C1=C2CCCN2C(c2nccs2)=NC1c1ccc(F)cc1Br` (racemic) [Example 81] it was 1000 to 5000 nM; in that of `CCOC(=O)C1=C2CNCCN2C(c2nccs2)=NC1c1ccc(F)cc1Br` (racemic) [Example 83], 1000 to 5000 nM.

The same assay, now with this note: dot-blot hybridization assay, read-out: Concentration for 50% inhibition of HBV (EC50)value.
With `CCOC(=O)C1=C2C[C@@H](CC#N)CN2C(c2nccs2)=NC1c1ccc(F)cc1Br` (mixture of isomers) [Example 11], the EC50 was 1000 to 5000 nM.

`CCOC(=O)C1=C2C[C@@H](CC#N)CN2C(c2nccs2)=NC1c1ccc(F)cc1Br` (mixture of isomers) [Example 12]: the EC50 was 100 to 500 nM.

For the compound `CCOC(=O)C1=C2C[C@@H](C#N)CN2C(c2nccs2)=NC1c1ccc(F)cc1Br` (mixture of isomers) [Example 26], the EC50 was 500 to 1000 nM. On the same count and under the same terms, in the case of `CCOC(=O)C1=C2C[C@@H](C#N)CN2C(c2nccs2)=NC1c1ccc(F)cc1Br` (mixture of isomers) [Example 27] it was 100 to 500 nM.

The assay is the same for the next values; noted with them: summary list of target compounds, Examples 1-165 (same as Table 2), read-out: BIOACTIVITY (inhibitory actions on HBV DNA, EC50).
As to `CCOC(=O)C1=C2C[C@@H](CO)CN2C(c2nccs2)=NC1c1ccc(F)cc1Br` (mixture of isomers) [Example 9], the EC50 was in the range of 100 to 500 nM.

For the compound `CCOC(=O)C1=C2C[C@@H](CC#N)CN2C(c2nccs2)=NC1c1ccc(F)cc1Br` (mixture of isomers) [Example 11], the EC50 was 1000 to 5000 nM.

With `CCOC(=O)C1=C2C[C@@H](CC#N)CN2C(c2nccs2)=NC1c1ccc(F)cc1Br` (mixture of isomers) [Example 12], the EC50 lay within 100 to 500 nM.

For the compound `CCOC(=O)C1=C2C[C@@H](CN3CCOCC3)CN2C(c2nccs2)=NC1c1ccc(F)cc1Br` (mixture of isomers) [Example 18], the EC50 is 1000 to 5000 nM. Still for that read-out and setting: in the case of `CCOC(=O)C1=C2C[C@@H](C#N)CN2C(c2nccs2)=NC1c1ccc(F)cc1Br` (mixture of isomers) [Example 26] it was 500 to 1000 nM; in that of `CCOC(=O)C1=C2C[C@@H](C#N)CN2C(c2nccs2)=NC1c1ccc(F)cc1Br` (mixture of isomers) [Example 27], 100 to 500 nM; in that of `CCOC(=O)C1=C2C[C@@H](C(N)=O)CN2C(c2nccs2)=NC1c1ccc(F)cc1Br` (mixture of isomers) [Example 29], 100 to 500 nM.
